Data published in US5668173A, “Method of increasing the conversion of homocysteine to methionine and uses thereof” (priority 1996, dated 1997).
Entries after “also recorded” stand apart in the source; their conditions may differ. Read-outs that look alike come from different tables or passages of the source. Values belong to the molecule of their own block, whether it stands above or below them.

What was measured:
[1] = system: horse betaine-homocysteine methyltrasferase; details: saturating levels of substrate; purified horse enzyme; cited from earlier work
[2] = system: animals; details: prior studies; cited from earlier work
[3] = system: betaine-homocysteine methyltransferase; details: cited from earlier work; for methionine produced compared with betaine as methyl donor: saturating levels of substrates, corrected for enzyme concentration
[4] = target: T1, pig liver betaine-homocysteine methyltransferase (Sus scrofa, UniProt A0A5G2RCW6); experiment: Initial rate kinetics of purified pig liver betaine-homocysteine methyltransferase; type: biochemical; details: for Vmax(rel): Table II, relative, corrected for an equivalent amount of enzyme
T1 construct: given as hexamer, now known as homotetramer
T1 sequence (A0A5G2RCW6 1-407): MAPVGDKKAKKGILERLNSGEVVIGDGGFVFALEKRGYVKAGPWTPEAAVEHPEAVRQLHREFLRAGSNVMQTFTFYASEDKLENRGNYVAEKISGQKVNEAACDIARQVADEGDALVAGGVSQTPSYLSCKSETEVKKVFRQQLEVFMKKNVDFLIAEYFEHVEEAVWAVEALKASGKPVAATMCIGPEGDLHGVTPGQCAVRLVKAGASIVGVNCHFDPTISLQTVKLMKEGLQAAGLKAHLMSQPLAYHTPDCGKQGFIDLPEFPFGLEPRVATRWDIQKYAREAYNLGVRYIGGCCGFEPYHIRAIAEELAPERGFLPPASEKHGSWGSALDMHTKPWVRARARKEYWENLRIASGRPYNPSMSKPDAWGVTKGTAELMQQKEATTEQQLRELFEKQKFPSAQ
Description: (§1) Betaine-homocysteine methyltransferase activity was measured as described by Finkelstein and Mudd (43) with the following minor modifications. […] Following a 2 hour incubation, samples were chilled to 0° C. and 2.5 mL ice-cold water was added. The samples were loaded onto a 0.5 cm (diameter) column containing 1 mL of Dowex 1-X4 (OH--) resin (100-200 mesh). The unreacted betaine (or dimethylacetothetin) was washed from the column with water (3×5 mL), and dimethylglycine (or methylthioacetate) and methionine eluted into scintiallation vials with 3 mL 1.5 N HCl. Blanks contained all of the reaction components except enzyme and their values were subtracted from the sample values. All samples were assayed in duplicate.
Michealis and Vmax constants were estimated from plotting initial rate data according to the method of Hanes (44).
Betaine-homocysteine methyltransferase has been purified to homogeneity from pig liver (45).
Using purified enzyme, initial rate studies were performed to determine the Michaelis constants of betaine, dimethylacetothetin, and homocysteine and to investigate the kinetic mechanism of the enzyme.

[5] = system: growing rats; details: cited from earlier work; for replacement of dietary requirement for choline: growing rats, diets lacking methionine but containing homocystine; for food intake and growth: thetins 0.5-0.93% (w/w) of the diet, 3 to 4 weeks
[6] = system: Escherichia coli; details: cited from earlier work
[7] = high dietary levels; cited from earlier work
[8] = sulfur amino acid intake optimal; cited from earlier work
[9] = system: hepatic betaine-homocysteine methyltransferase; details: surfeit dietary levels, crude liver extracts, compared to control; cited from earlier work
[10] = system: human betaine-homocysteine methyltransferase; details: human enzyme containing extracts; read-out: Michealis constant; cited from earlier work
[11] = system: primates; details: infusion, 3 month period; cited from earlier work
[12] = system: rat betaine-homocysteine methyltransferase; details: rat enzyme containing extracts; read-out: Michealis constant; cited from earlier work
[13] = system: chickens; details: dietary; cited from earlier work
[14] = target: T1, pig liver betaine-homocysteine methyltransferase; experiment: Product inhibition of pig liver betaine-homocysteine methyltransferase activity; type: biochemical; details: for pmol methionine: inhibitor 50 μM, L-homocysteine 50 μM, betaine 25 μM
Description: as §1
The subsequent metabolism of these products could have significant effects on flux through the betaine-homocysteine methyltransferase reaction because the rate of product removal would determine whether a product accumulates enough to inhibit enzyme activity. When pharmacological doses of betaine is used for the treatment of severe hyperhomocyst(e)inemia, dimethylglycine oxidation appears to be insufficient, and as a result, dimethylglycine accumulates.
Inhibition pf pig liver betaine-homocysteine methyltransferase
activity by dimethyglycine ethylthoacetate in the presence of
It is possible that homocysteine, dimethylglycine, and betaine-homocysteine methyltransferase form an abortive ternary complex.

[15] = system: human betaine-homocysteine methyltransferase; details: cited from earlier work
[16] = system: rat betaine-homocysteine methyltransferase; details: cited from earlier work
[17] = cited from earlier work; for urinary level during betaine treatment: urine
[18] = system: cystathionine-β-synthase deficiency; details: cited from earlier work
[19] = system: chickens; details: cited from earlier work
[20] = system: pigs; details: dietary betaine; cited from earlier work
[21] = system: cystathionine-β-synthase; details: dietary cysteine increased; cited from earlier work
[22] = substrate: C[N+](C)(C)CC(=O)O; experiment: Initial rate kinetics of purified pig liver betaine-homocysteine methyltransferase; type: biochemical; details: other: saturating levels of one substrate while varying the other; betaine 250 μM or L-homocysteine 500 μM fixed
Description: (§2) Betaine-homocysteine methyltransferase activity was measured as described by Finkelstein and Mudd (43) with the following minor modifications. […] Following a 2 hour incubation, samples were chilled to 0° C. and 2.5 mL ice-cold water was added. The samples were loaded onto a 0.5 cm (diameter) column containing 1 mL of Dowex 1-X4 (OH--) resin (100-200 mesh). […] Blanks contained all of the reaction components except enzyme and their values were subtracted from the sample values. All samples were assayed in duplicate.

[23] = substrate: C[S+](C)CC(=O)O; experiment: as above; type: biochemical; details: other: saturating levels of one substrate while varying the other; betaine 250 μM or L-homocysteine 500 μM fixed
Description: as §2

[24] = substrate: N[C@@H](CCS)C(=O)O; experiment: purified protein, by the assay type; details: other: saturating levels of one substrate while varying the other; betaine 250 μM or L-homocysteine 500 μM fixed

Molecule: C[S+](C)CC(=O)O [dimethylacetothetin]
increase in methionine production compared to betaine [1]: 350 fold
toxicity to animals [2]: non-toxic to animals
methionine produced compared with betaine as methyl donor [3]: more methionine was produced
Vmax(rel) [4]: 7
rate of methylation of homocysteine, faster than with betaine ([4]; equimolar concentrations as betaine, inferred from Vmax/Km): at least 700%
Vmax/Km compared with betaine ([4]; greater than that for betaine): 7 fold
relative Vmax compared with betaine ([4]; greater than when betaine was used): 47 fold
specificity (Vmax/Km) compared with betaine ([4]; initial rate studies): greater specificity
replacement of dietary requirement for choline [5]: can replace the dietary requirement for choline; also recorded: replace the dietary requirement for choline (or betaine)
effectiveness as osmolyte compared with betaine [6]: equally effective as betaine

Molecule: CSCC[C@H](N)C(=O)O [methionine]
toxicity [7]: most toxic of all amino acids required for protein synthesis
absorbed methionine converted to cysteine or completely oxidized [8]: about 30%
absorbed methionine retained by the animal [8]: about 70%
hepatic betaine-homocysteine methyltransferase activity [9]: higher levels of betaine-homocysteine methyltransferase activity

Molecule: N[C@@H](CCS)C(=O)O [homocysteine]
Km [10]: 25 to 50 µM
vascular lesions [11]: vascular lesions have been induced in primates
Km [12]: 25 to 50 µM

Molecule: O=S(=O)(O)O [sulfate]
cystine requirements [13]: decrease cystine requirements

Molecule: C[S+](C)CCC(=O)O [dimethylpropiothetin]
increase in methionine production compared to betaine [1]: 54 fold
toxicity to animals [2]: non-toxic to animals
Vmax compared with betaine-dependent reaction ([3]; previous studies): higher Vmax
Vmax compared with dimethylacetothetin-dependent reaction ([3]; previous studies): lower Vmax
methionine produced compared with betaine as methyl donor [3]: more methionine was produced
replacement of dietary requirement for choline ([5]; listed as dimethylpropriothetin): can replace the dietary requirement for choline; also recorded: replace the dietary requirement for choline (or betaine)

activity at 50 µM [14]: 59%
pmol methionine [14]: 416 pmol
affinity for betaine-homocysteine methyltransferase relative to dimethylglycine ([14]; than dimethylglycine): lower affinity
Molecule: CSCC(=O)O [methylthioacetate]

activity at 50 µM [14]: 30%
pmol methionine [14]: 208 pmol
inhibition of pig betaine-homocysteine methyltransferase ([14]; product inhibition studies): potent inhibitor
Molecule: CN(C)CC(=O)O [dimethylglycine]
inhibition of methionine production ([15]; 10 μM dimethylglycine): 50%
inhibition of human betaine-homocysteine methyltransferase [15]: potent inhibitor
inhibition of rat betaine-homocysteine methyltransferase [16]: potent inhibitor
type of inhibition relative to homocysteine ([14]; Dixon plots, betaine 25 μM or 250 μM, L-homocysteine varied): uncompetitive inhibitor; also recorded: uncompetitive inhibition
urinary level during betaine treatment [17]: dramatic increase

Molecule: vitamin B6
individuals non-responsive to vitamin B6 [18]: 50%
individuals responding to supplemental B6 [18]: approximately 50%

Molecule: CSCCC(=O)O [3-methylthiopropionate]
toxicity [7]: produces toxic symptoms identical to those produced by excess methionine consumption

Molecule: C[N+](C)(C)CCO [choline]
food intake and growth [5]: not different among experimental groups

Molecule: C[N+](C)(C)CC(=O)O [betaine]
carcass fat ([19]; dietary betaine, chickens): can reduce carcass fat
treatment of diarrhea and wet litter ([19]; fowl): effective in the treatment of diarrhea and wet litter
carcass fat [20]: can reduce carcass fat
hepatic betaine-homocysteine methyltransferase activity [9]: higher levels of betaine-homocysteine methyltransferase activity
Km [10]: 25 to 50 µM
normalization of plasma homocysteine ([17]; betaine treatment of severe hyperhomocyst(e)inemia): rarely attained; also recorded: usually does not fall within the normal range; also recorded: does not usually lower plasma homocysteine to within the normal range
plasma homocysteine ([17]; pharmacological doses of betaine, hyperhomocyst(e)inemia): reduce plasma homocysteine; also recorded: generally lowers plasma homocysteine compared to pretreatment levels
urinary level during betaine treatment [17]: dramatic increase
Kcat of betaine-dependent reaction [3]: very low Kcat
Km ([3]; prior studies, source of enzyme not stated): 20 to 50 µM
Km [12]: 25 to 50 µM
Vmax(rel) [4]: 1
replacement of dietary requirement for choline [5]: can replace the dietary requirement for choline
food intake and growth [5]: not different among experimental groups

Molecule: N[C@@H](CS)C(=O)O [cysteine]
cystathionine-β-synthase activity and mRNA levels [21]: decrease

B1: pig liver betaine-homocysteine methyltransferase (Sus scrofa) (protein)
chain: T1 sequence (A0A5G2RCW6 1-407)
notes: given as hexamer, now known as homotetramer
Km [22]: 23 µM
Km [23]: 155 µM
Km [24]: 32 µM
